This is an account of results in patent US20250281628A1, “COMPOSITE NANOPARTICULATE MINERALIZED COLLAGEN GLYCOSAMINOGLYCAN MATERIALS WITH TIME RELEASE ANTI-RESORPTIVE FACTORS” (The Regents of the University of California, priority 2021, published 2025).

Assay [1] has as its system canonical BMP receptor signaling pathway. The assay is described as follows: Inhibitor study with DMH1, western blot of hMSCs on scaffolds. It is filed as cell-based, human. Particulars: 50 μM. The protocol: (§1) Osteogenic differentiation of hMSCs on Col-GAG and MC-GAG: 3×10^5 hMSCs were seeded onto 8 mm discs of CG-GAG and MC-GAG scaffolds in proliferation media. 24 h after seeding, media was switched to osteogenic differentiation media consisting of 10 mM β-glycerophosphate, 50 μg/mL ascorbic acid, and 0.1 μM dexamethasone. For inhibitor studies, scaffolds were treated or untreated with dorsomorphin homologue 1 (DMH1; Sigma-Aldrich) or PD98059 (Cell Signaling Technologies, Beverly, MA) separately, all at a concentration of 50 μM. Fresh DMH1 and PD98059 were added to each media change every 3 days.
(§2) Western blot: Lysates were prepared from scaffolds at 0, 4, 14, and 24 days of culture using SDS sample buffer and equal amounts were subjected to 4-20% SDS-PAGE (Bio-Rad, Hercules, CA). Western blot analysis was carried out with antibodies against OPG, RANKL, phosphorylated small mothers against decapentaplegic 1/5 (p-Smad1/5), total Smad5, phosphorylated extracellular regulated kinase 1/2 (p-ERK1/2), total ERK1/2, and […] followed by 1:4000 dilutions of HRP-conjugated IgG antibodies (Bio-Rad, Hercules, CA) and an enhanced chemiluminescent substrate (Thermo Scientific, Rockford, IL). For detection of p-Smad1/5 and total Smad5, 10 μg of lysate was loaded per lane. For detection of OPG, RANKL, p-ERK1/2, total ERK1/2, and β-actin, 20 μg of lysate was loaded per lane. All antibodies were obtained from Cell Signaling Technologies (Beverly, MA) with the exception of RANKL, OPG, and β-actin antibodies which were obtained from Santa Cruz Biotechnology (Santa Cruz, CA). Imaging analysis was carried out using ImageJ (NIH, Bethesda, MD).
(§3) To characterize the mechanism responsible for differential OPG expression osteogenically differentiated hMSCs cultured on MC-GAG versus Col-GAG, DMH1, and PD98059 small molecule inhibitors were utilized for the canonical BMP receptor and MEK1/ERK1/2 signaling pathways, respectively (FIG. 11). […] Due to the massive upregulation of Smad1/5 phosphorylation in MC-GAG, a smaller inhibition was noted compared to Col-GAG. […] In contrast, OPG expression was increased in the presence of DMH1 on both Col-GAG and MC-GAG, particularly at the day 14 timepoint.
Background: Immunoblotting shows a protein as a band on a membrane.

Assay [2] has as its system MEK1/ERK1/2 signaling pathway. Briefly: Inhibitor study with PD98059, western blot of hMSCs on scaffolds. Type of assay: cell-based, human. Conditions: 50 μM. As to the method: as §1, §2, §3

SMILES strings stand for the structures.

Consider `CC(C)Oc1ccc(-c2cnc3c(-c4ccnc5ccccc45)cnn3c2)cc1` [DMH1, dorsomorphin homologue 1], for which the “phosphorylated ERK1/2” value in assay [1] (MC-GAG at day 4) is “small elevation”. The OPG expression entry in assay [1] (both Col-GAG and MC-GAG, particularly day 14) was “increased”. In addition, in assay [1] (hMSCs on Col-GAG and MC-GAG), the “total Smad5, total ERK1/2, RANKL, or actin” value is “No differences”. The “phosphorylation of Smad1/5” value in assay [1] (hMSCs on either material) is “partially decreased at all timepoints”.

Regarding `COc1cccc(-c2cc(=O)c3ccccc3o2)c1N` [PD98059], in assay [2], the “phosphorylated Smad1/5, total Smad5, total ERK1/2, or actin” value is “no effects”. For the same molecule, the “phosphorylated ERK1/2” value in assay [2] (all timepoints, either material) was “decreased”. For the same molecule, the OPG protein expression result in assay [2] (hMSCs on Col-GAG) was “no differences were detected”; in assay [2] (hMSCs on MC-GAG, all timepoints), “decreased”. Besides, the RANKL expression result in assay [2] (hMSCs on Col-GAG) is listed as “no differences were detected”; in assay [2] (hMSCs on MC-GAG, particularly day 24), “downregulated”.
